Results from patent US20200345689A1, “METHODS AND CO[…] RRx-001 FOR RADIOPROTECTION” (EpicentRx, Inc., priority 2018, published 2020).

Legend:
bone marrow = experiment: Histopathology of sternal bone marrow (cellularity grade, megakaryocytes) after sublethal TBI or sham irradiation; assay type: in vivo, mice
Description: To determine the pathophysiological effects of RRx-001 on hematopoietic protection in mice, CD2F1 male mice were treated with 10 mg/kg RRx-001 or the vehicle control 24 hours prior to a sublethal dose of TBI (7 Gy at 0.6 Gy/min using High-level Cobalt-60) or sham irradiation (day 0) according to the table below.
CD2F1 male mice (n=3/group) were divided into 4 experimental groups: 1) irradiation+vehicle, 2) irradiation+RRx-001, 3) sham-irradiation+vehicle and 4) sham-irradiation+RRx-001. Either 10 mg/kg RRx-001 or the vehicle control were IP injected 24 hours prior to either irradiation or sham-irradiation (day 0). On days 2, 7, 14, 21, and 28 post-irradiation (day 0) mice were humanely euthanized. Blood, bone marrow, and sternebrae were then collected. This experiment was performed in duplicate for a total of n=6 mice/group/time point.
Sternebrae from euthanized mice (n=6/group/time point) were collected on days 2, 7, 14, 21 and 28 post-irradiation. Sternebrae were fixed in 10% zinc-buffered formalin for at least 24 hours and up to 7 days. Fixed sternebrae were decalcified for 3 hr in 12-18% sodium EDTA (pH 7.4-7.5) and specimens dehydrated using graded ethanol concentrations and embedded in paraffin. Longitudinal 4μm sections were stained with regular hematoxylin and eosin. Two board-certified pathologist conducted histopathological evaluation of the samples. One of the pathologist scored all the samples blindly. Bone marrow was evaluated in situ within sternebrae and graded (Grade 1: <10%; Grade 2: 11-30%; Grade 3: 31-60%; Grade 4: 61-89%; Grade 5: >90%) for total cellularity. Megakaryocytes were also quantified based on the average per 10 high power fields (HPF) at 400× magnification using a BX43 or BX53 microscope (Olympus, Minneapolis, Minn.). Images were captured with an Olympus DP22 camera and imported into Olympus Cellsens Standard software for review.
Blood parameters were compared between treatment groups using an analysis of variance (ANOVA). The Wilcoxon test was also used for sensitivity and to potentially address data departures from normality. A longitudinal mixed model repeated measures was also implemented to provide a more complete data analysis of the sham-irradiated treatment groups' difference in overall time profile mean based on the blood parameters. Bone marrow data (megakaryocytes and grade) statistical analysis was carried out using a parametric test consisting of a general linear model analysis of variance (ANOVA with factors consisting of treatment group and pathologist) and the Kruskal-Wallis nonparametric test. The statistical data analysis was carried out using R software (Version 3.4.3, 2016) and the graphs made using GraphPad Prism version 7.03 (GraphPad Software, La Jolla, Calif.).
To determine the effect of RRx-001 on bone marrow, a histopathological analysis of bone marrow sternebrae was performed and the cellularity, as reported by grade (grade 1: <10%; grade 2: 11-30%; grade 3: 31-60%; grade 4: 61-89%; grade 5: >90% cellularity), and megakaryocyte numbers (averaged per 10 high-powered fields; HPF) were ascertained by two pathologists, one of which scored all the samples blindly (TAS, WEC).

[1] = tested on: NAD(P)H Dehydrogenase [Quinone] 1 (NQO-1); experiment: Western blot of ARE protein expression in hMSC: NQO-1; assay type: cell-based, human; conditions: 5 mM RRx-001 for 16 hours, all groups
Description: (§1) Antioxidant response element (ARE) genes such as heme oxygenase 1 (HO-1), NAD(P)H Dehydrogenase [Quinone] 1 (NQO-1) and Superoxide Dismutase (SOD) are involved in the detoxification and elimination of reactive oxidants.
(§2) Expression of ARE proteins was assayed in hMSC, macrophages, and monocytes following in vitro irradiation of the cells, which were pretreated with RRx-001 or vehicle. Protein expression was assayed by Western blotting and protein quantification.
(§3) hMSC were treated for 16 hours with […] RRx-001 or the vehicle control (0.05% DMSO), irradiated at 10 Gy or sham-irradiated and the protein collected 8 or 24 hours post-sham or irradiation. Human monocytic leukemic THP-1 and U937 cells were differentiated into macrophages with 50 nM Phorbol 12-myristate 13-acetate (PMA) for 24 hours before treatment. Differentiated and non-differentiated cells were treated with […] RRx-001 or 0.05% DMSO (vehicle control) for 16 hours prior to radiation. The cells were irradiated at 5 Gy or sham-irradiated and collected 4-8 hours later for both analysis. For each experiment, duplicates of each sample were run.

SOD1 and 2 = experiment: Western blot of ARE protein expression in hMSC: SOD1 and 2; assay type: cell-based, human; conditions: 5 mM RRx-001 for 16 hours, 8 hours after 10 Gy irradiation
Description: as §1, §2, §3

[2] = tested on: human monocytic leukemic THP-1 cells; experiment: Cytokine array of irradiated THP-1 monocytes and macrophages; assay type: cell-based
Description: A cytokine array was employed to examine cytokine expression following in vitro irradiation of human monocytic leukemic THP-1 cells. THP-1 cells were differentiated into macrophages with 50 nM Phorbol 12-myristate 13-acetate (PMA) for 24 hours before treatment. Differentiated and non-differentiated cells were treated with […] RRx-001 or 0.05% DMSO (vehicle control) for 16 hours prior to radiation. The cells were irradiated at 5 Gy or sham-irradiated and collected 4-8 hours later for both analysis. For the cytokine analysis, cell media was collected and blotted onto Proteome Profiler Human Cytokine Arrays (R&D Systems, Inc.) according to the manufacturer's protocol.

## O=C(CBr)N1CC([N+](=O)[O-])([N+](=O)[O-])C1 [RRx-001, 2-bromo-1-(3,3-dinitroazetidin-1-yl)ethan-1-one]
Bone marrow; 7 Gy TBI, 10 mg/kg IP 24 hours prior, day 7
  bone marrow cellularity compared to the vehicle control: slight increase in cellularity
Bone marrow; 7 Gy TBI, 10 mg/kg IP 24 hours prior, day 14
  hematopoietic recovery as determined by the grade of bone marrow cellularity compared with control: significantly accelerated hematopoietic recovery
Bone marrow; 7 Gy TBI, 10 mg/kg IP, between days 7-28
  number of megakaryocytes: steady increase
Bone marrow; 7 Gy TBI, 10 mg/kg IP, day 2
  number of megakaryocytes: reduced
Bone marrow; 7 Gy TBI, 10 mg/kg IP, day 7
  number of megakaryocytes: severely depleted
Bone marrow; after irradiation (7 Gy TBI), 10 mg/kg IP 24 hours prior
  bone marrow cellularity grade: 1 (grade 1: <10%)
Bone marrow; sham-irradiated, 10 mg/kg IP, day 14, vs vehicle control
  number of megakaryocytes: significantly higher than the vehicle control
Bone marrow; sham-irradiated, 10 mg/kg IP, duration of the study
  overall cellularity of the bone marrow: ≥ 90%
Bone marrow; sham-irradiated, 10 mg/kg IP, duration of the study (days 2-28)
  bone marrow cellularity grade: 5 (grade 5: >90% cellularity)
[1]
  NQO-1 expression: slightly reduced
SOD1 and 2
  SOD1 and 2 expression: slight increase
[2]; THP-1 macrophage fraction, 3 mM RRx-001 for 16 hours, sham and 5 Gy irradiated
  cytokine expression (cytokine array): reduction in cytokines involved in inflammation
[2]; THP-1 monocytes, 3 mM RRx-001 for 16 hours
  CCL5/RANTES expression (cytokine array): induction
[2]; macrophages
  pro-inflammatory chemokine IL-8: reduction
